Reference: patent US20240158446A1, “CYCLIC COMPOUND HAVING SELECTIVE INHIBITORY ACTION ON KRAS OVER HRAS AND NRAS” (CHUGAI SEIYAKU KABUSHIKI KAISHA, priority 2021, published 2024)
Read-outs that look alike come from different tables or passages of the source. *1 amine or outer side, *2 acyl side, *3 side chain or, on linkers, in order; H or OH if unused. Where a SMILES comes first, the peptide text is derived from it. Bridges are numbered along the chain shown (N, C = ends). [ ]: non-standard residue; d: D form. The star is where a group is joined. hPhe(3,5-F2-4-CF3) = N[C@@H](CCc1cc(F)c(C(F)(F)F)c(F)c1)C(=O)O; hPhe(3-Cl-4-CF3) = N[C@@H](CCc1ccc(C(F)(F)F)c(Cl)c1)C(=O)O; NPrPhe(4-CF3) = CCCN[C@@H](Cc1ccc(C(F)(F)F)cc1)C(=O)O; X30 = C=CCCN([C@@H](Cc1ccc(C)cc1)C(=O)[*:2])[*:1]; Abu(4,4,4-F3) = N[C@@H](CC(F)(F)F)C(=O)O; X7 = CCN([C@H](C(=O)[*:2])C1CCCC1)[*:1]; NMeGly(cPent) = CN[C@H](C(=O)O)C1CCCC1; Ac4c(3,3-F2) = NC1(C(=O)O)CC(F)(F)C1; Hyp = O=C(O)[C@@H]1C[C@@H](O)CN1; NMeD = CN[C@@H](CC(=O)O)C(=O)O; NMeL = CN[C@@H](CC(C)C)C(=O)O; Morpholide = C1CN(*)CCO1; NMeA = CN[C@@H](C)C(=O)O; Ac5c = NC1(C(=O)O)CCCC1; Aze = O=C(O)[C@@H]1CCN1; NEtG = CCNCC(=O)O; Sar = CNCC(=O)O

What was measured:
[1] = target: GDP-bound KRAS wild-type protein (Homo sapiens, UniProt P01116); test: Binding to KRAS by surface plasmon resonance (SPR), Single Cycle Kinetics; conditions: GDP-bound KRAS wild-type protein, read-out: KRAS KD
[2] = target: GDP-bound NRAS wild-type protein (Homo sapiens, UniProt P01111); test: Binding to NRAS by surface plasmon resonance (SPR), Single Cycle Kinetics; conditions: for NRAS/KRAS (ratio of KD value for NRAS to KD value for KRAS) / NRAS/KRAS (ratio of KD value with respect to NRAS to KD value with respect to KRAS): SPR, GDP-bound NRAS wild-type protein vs GDP-bound KRAS wild-type protein
[3] = target: GDP-bound HRAS wild-type protein (Homo sapiens, UniProt P01112); test: Binding to HRAS by surface plasmon resonance (SPR), Single Cycle Kinetics; conditions: for HRAS/KRAS (ratio of KD value for HRAS to KD value for KRAS) / HRAS/KRAS (ratio of KD value with respect to HRAS to KD value with respect to KRAS): SPR, GDP-bound HRAS wild-type protein vs GDP-bound KRAS wild-type protein
[4] = SPR Single Cycle Kinetics, 1:1 binding model

Sequence of GDP-bound HRAS wild-type protein (P01112 whole entry): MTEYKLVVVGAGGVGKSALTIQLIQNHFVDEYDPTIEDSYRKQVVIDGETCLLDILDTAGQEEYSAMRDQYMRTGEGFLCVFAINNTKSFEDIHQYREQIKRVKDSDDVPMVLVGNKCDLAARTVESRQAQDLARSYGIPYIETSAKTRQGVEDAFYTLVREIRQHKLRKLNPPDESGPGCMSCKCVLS
Sequence of GDP-bound NRAS wild-type protein (P01111 whole entry): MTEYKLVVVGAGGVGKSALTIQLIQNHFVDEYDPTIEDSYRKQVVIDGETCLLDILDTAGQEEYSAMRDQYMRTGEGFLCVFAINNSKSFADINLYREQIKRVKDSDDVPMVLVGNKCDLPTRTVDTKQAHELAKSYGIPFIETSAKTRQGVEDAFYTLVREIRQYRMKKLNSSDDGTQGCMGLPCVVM
Sequence of GDP-bound KRAS wild-type protein (P01116 whole entry): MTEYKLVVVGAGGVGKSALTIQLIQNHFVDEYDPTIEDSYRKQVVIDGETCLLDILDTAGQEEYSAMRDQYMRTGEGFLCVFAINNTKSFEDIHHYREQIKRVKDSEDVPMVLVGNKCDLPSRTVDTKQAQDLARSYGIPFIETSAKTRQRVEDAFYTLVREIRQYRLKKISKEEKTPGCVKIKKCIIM

SMILES | NRAS/KRAS (ratio of KD value for NRAS to KD value for KRAS) [2] | HRAS/KRAS (ratio of KD value for HRAS to KD value for KRAS) [3] | Kd [1, 4] [nM] | NRAS/KRAS (ratio of KD value with respect to NRAS to KD value with respect to KRAS) [2] | HRAS/KRAS (ratio of KD value with respect to HRAS to KD value with respect to KRAS) [3] | also measured
C=CCCCC[C@H]1C(=O)N[C@@H]([C@@H](C)CC)C(=O)N(C)CC(=O)N(C)[C@H]2CCCCN(C2=O)[C@@H](Cc2ccc(C(F)(F)F)cc2)C(=O)N(C)CC(=O)N[C@@H](CCc2cc(F)c(C(F)(F)F)c(F)c2)C(=O)N2C[C@H](OCC)C[C@H]2C(=O)N[C@](C)(CC=C)C(=O)N(C)[C@@H](C2CCCC2)C(=O)N(C)[C@H](C(=O)N2CCOCC2)CC(=O)N1C [PP0877] | C (A compound having a KD ratio of 0.1 or more and less than 3 is denoted as C) | B (a compound having 3 or more and less than 10 is denoted as B) |  |  |  | Kd ([1]; SPR, Single Cycle Kinetics): 0.21 nM
CCCN1C(=O)CN(C)C(=O)CN(CC)C(=O)[C@H](CC(F)(F)F)NC(=O)[C@H](CC(C)C)N(C)C(=O)C[C@@H](C(=O)N2CCOCC2)N(C)C(=O)[C@H](C2CCCC2)N(C)C(=O)C2(CCCC2)NC(=O)[C@@H]2CCCN2C(=O)[C@H](CCc2ccc(C(F)(F)F)c(Cl)c2)NC(=O)CN(C)C(=O)[C@@H]1Cc1ccc(C(F)(F)F)cc1 [PP0291] ([NMeL][Abu(4,4,4-F3)][NEtG][Sar][NPrPhe(4-CF3)][Sar][hPhe(3-Cl-4-CF3)]P[Ac5c][NMeGly(cPent)][NMeD]-Morpholide; lactam N-11) | B (a compound having 3 or more and less than 10 is denoted as B) | B (a compound having 3 or more and less than 10 is denoted as B) | 2.2 |  |  | 
CC[C@H](C)[C@@H]1NC(=O)[C@H](CC(C)C)N(C)C(=O)C[C@@H](C(=O)N2CCOCC2)N(C)C(=O)[C@H](C2CCCC2)N(C)C(=O)C2(CCCC2)NC(=O)[C@@H]2CCCN2C(=O)[C@H](CCc2cc(F)c(C(F)(F)F)c(F)c2)NC(=O)CN(C)C(=O)[C@H](Cc2ccc(C(F)(F)F)cc2)N2CCCC[C@@H](C2=O)N(C)C(=O)[C@@H]2CCCN2C1=O [PP0547] |  |  | 0.36 | B (a compound having 3 or more and less than 10 is denoted as B) | B (a compound having 3 or more and less than 10 is denoted as B) | 
CCC[C@H]1C(=O)N[C@@H]([C@@H](C)CC)C(=O)N(C)CC(=O)N(C)[C@H]2C/C=C\CCN(C2=O)[C@@H](Cc2ccc(C(F)(F)F)cc2)C(=O)N(C)CC(=O)N[C@@H](CCc2ccc(C(F)(F)F)c(OC)c2)C(=O)N2CC[C@H]2C(=O)NC2(CC(C)(C)C2)C(=O)N(C)[C@@H](C(CC)CC)C(=O)N(C)[C@H](C(=O)N(C)C)CC(=O)N1C [PP2936] |  |  | 2.7 |  |  | NRAS/KRAS (ratio of KD value with respect to GDP-bound NRAS wild-type protein to KD value with respect to KRAS) ([2]; SPR KD ratio NRAS/KRAS, class symbols): AA (a compound having 20 or more is denoted as AA); HRAS/KRAS (ratio of KD value with respect to GDP-bound HRAS wild-type protein to KD value with respect to KRAS) ([3]; SPR KD ratio HRAS/KRAS, class symbols): A (a compound having 10 or more and less than 20 is denoted as A)
CCC[C@H]1C(=O)N[C@@H]([C@@H](C)CC)C(=O)N(C)CC(=O)N(C)[C@H]2C/C=C\CCN(C2=O)[C@@H](Cc2ccc(C(F)(F)F)cc2)C(=O)N(C)CC(=O)N[C@@H](CCc2ccc(C(F)(F)F)c(Cl)c2)C(=O)N2C[C@H](OCC)C[C@H]2C(=O)NC2(CC(C)(C)C2)C(=O)N(C)[C@@H](CC(F)(F)F)C(=O)N(C)[C@H](C(=O)N(C)C)CC(=O)N1C [PP2975] | A (a compound having 10 or more and less than 20 is denoted as A) | A (a compound having 10 or more and less than 20 is denoted as A) |  |  |  | Kd ([1]; SPR, Single Cycle Kinetics): 0.96 nM
CCCOC[C@H]1C(=O)N[C@@H]([C@@H](C)CC)C(=O)N(C)CC(=O)N(C)[C@H]2C/C=C\CCN(C2=O)[C@@H](Cc2ccc(C)cc2)C(=O)N(C)CC(=O)N[C@@H](CCc2cc(F)c(C(F)(F)F)c(F)c2)C(=O)N2C[C@H](OCC)C[C@H]2C(=O)NC2(CCCC2)C(=O)N(C)[C@@H](C2CCCC2)C(=O)N(C)[C@H](C(=O)N2CCCC2)CC(=O)N1C [PP1401] |  |  |  |  |  | Kd ([1]; SPR, Single Cycle Kinetics, 1:1 binding model): 0.26 nM; NRAS/KRAS (ratio of KD value for NRAS to KD value for KRAS) ([2]; KD ratio class): A (a compound having 10 or more and less than 20 is denoted as A); HRAS/KRAS (ratio of KD value for HRAS to KD value for KRAS) ([3]; KD ratio class): A (a compound having 10 or more and less than 20 is denoted as A)
CC[C@H](C)[C@@H]1NC(=O)[C@@H]2CCCCCCc3ccc(cc3)C[C@@H](C(=O)N(C)CC(=O)N[C@@H](CCc3ccc(C(F)(F)F)c(OC)c3)C(=O)N3C[C@H](OC4CCC4)C[C@H]3C(=O)NC3(CC(C)(C)C3)C(=O)N(C)[C@@H](C3CCCC3)C(=O)N(C)[C@H](C(=O)N(C)C)CC(=O)N2C)N2CC/C=C\C[C@@H](C2=O)N(C)C(=O)CN(C)C1=O [PP3068] | A (a compound having 10 or more and less than 20 is denoted as A) | B (a compound having 3 or more and less than 10 is denoted as B) |  |  |  | Kd ([1]; SPR, Single Cycle Kinetics): 0.05 nM
CCO[C@@H]1C[C@H]2C(=O)NC3(CCC3)C(=O)N(C)[C@@H](C3CCCC3)C(=O)N(C)[C@H](C(=O)N3CCOCC3)CC(=O)N(C)[C@@H](CC3CCC3)C(=O)N[C@@H]([C@@H](C)CC)C(=O)N(C)CC(=O)N(C)[C@H]3CCCCN(C3=O)[C@@H](Cc3ccc(C(F)(F)F)cc3)C(=O)N(C)CC(=O)N[C@@H](CCc3cc(F)c(C(F)(F)F)c(F)c3)C(=O)N2C1 [PP0713] |  |  | 0.033 | C (A compound having a KD ratio of 0.1 or more and less than 3 is denoted as C) | B (a compound having 3 or more and less than 10 is denoted as B) | 
CCCN1C(=O)[C@@H]2CCN2C(=O)CN(C)C(=O)[C@H]([C@@H](C)CC)NC(=O)[C@H](CC(C)C)N(C)C(=O)C[C@@H](C(=O)N2CCOCC2)N(C)C(=O)[C@H](C2CCCC2)N(C)C(=O)C2(CC(F)(F)C2)NC(=O)[C@@H]2CCCN2C(=O)[C@H](CCc2cc(F)c(C(F)(F)F)c(F)c2)NC(=O)CN(C)C(=O)[C@@H]1Cc1ccc(C(F)(F)F)cc1 [PP0802] ([NMeL]I[Sar][Aze][NPrPhe(4-CF3)][Sar][hPhe(3,5-F2-4-CF3)]P[Ac4c(3,3-F2)][NMeGly(cPent)][NMeD]-Morpholide; lactam N-11) |  |  | 0.082 | C (A compound having a KD ratio of 0.1 or more and less than 3 is denoted as C) | B (a compound having 3 or more and less than 10 is denoted as B) | 
CCCN1C(=O)CN(C)C(=O)CN(C)C(=O)[C@H]([C@@H](C)CC)NC(=O)[C@H](CC(C)C)N(C)C(=O)C[C@@H](C(=O)N(C)C)N(C)C(=O)[C@H](C2CCCC2)N(C)C(=O)C2(CCCC2)NC(=O)[C@@H]2C[C@@H](OCC)CN2C(=O)[C@H](CCc2ccc(C(F)(F)F)c(Cl)c2)NC(=O)CN(C)C(=O)[C@@H]1Cc1ccc(C(F)(F)F)cc1 [PP0415] ([NMeL]I[Sar][Sar][NPrPhe(4-CF3)][Sar][hPhe(3-Cl-4-CF3)][Hyp](Et)[Ac5c][NMeGly(cPent)][NMeD]-NMe2; lactam N-11) |  |  | 0.018 | B (a compound having 3 or more and less than 10 is denoted as B) | B (a compound having 3 or more and less than 10 is denoted as B) | 
CC[C@H](C)[C@@H]1NC(=O)[C@H](CC(C)C)N(C)C(=O)C[C@@H](C(=O)N2CCOCC2)N(CC)C(=O)[C@H](C2CCCC2)N(C)C(=O)C2(CCCC2)NC(=O)[C@@H]2CCCN2C(=O)[C@H](CCc2cc(F)c(C(F)(F)F)c(F)c2)NC(=O)CN(C)C(=O)[C@H](Cc2ccc(C(F)(F)F)cc2)N2CCCCC[C@@H](C2=O)N(C)C(=O)CN(C)C1=O [PP0477] |  |  | 11 | A (a compound having 10 or more and less than 20 is denoted as A) | A (a compound having 10 or more and less than 20 is denoted as A) | 
CC[C@H](C)[C@@H]1NC(=O)[C@H](CC(C)C)N(C)C(=O)C[C@@H](C(=O)N2CCOCC2)N(C)C(=O)[C@H](C2CCCC2)N(C)C(=O)C2(CCCC2)NC(=O)[C@@H]2CCCN2C(=O)[C@H](CCc2ccc(C(F)(F)F)c(Cl)c2)NC(=O)CN(C)C(=O)[C@H](C2CCCC2)N(CC)C(=O)CN(C)C(=O)CN(C)C1=O [PP0024] ([NMeL]I[Sar][Sar][X7][Sar][hPhe(3-Cl-4-CF3)]P[Ac5c][NMeGly(cPent)][NMeD]-Morpholide; lactam N-11) | B (a compound having 3 or more and less than 10 is denoted as B) | C (A compound having a KD ratio of 0.1 or more and less than 3 is denoted as C) | 5.9 |  |  | 
C=CCCN1C(=O)[C@@H]2CCN2C(=O)[C@H](C)N(C)C(=O)[C@H]([C@@H](C)CC)NC(=O)[C@H](CC(C)C)N(C)C(=O)C[C@@H](C(=O)N2CCOCC2)N(C)C(=O)[C@H](C2CCCC2)N(C)C(=O)C2(CCCC2)NC(=O)[C@@H]2CCCN2C(=O)[C@H](CCc2ccc(C(F)(F)F)c(Cl)c2)NC(=O)CN(C)C(=O)[C@@H]1Cc1ccc(C)cc1 [PP0089] ([NMeL]I[NMeA][Aze][X30][Sar][hPhe(3-Cl-4-CF3)]P[Ac5c][NMeGly(cPent)][NMeD]-Morpholide; lactam N-11) | C (A compound having a KD ratio of 0.1 or more and less than 3 is denoted as C) | B (a compound having 3 or more and less than 10 is denoted as B) | 0.17 |  |  | 
